Test system: synovial membrane of knee joints of rabbits
Assay: Intra-articular injection into rabbit knee joints, histological scoring of the synovial membrane after 24 hours
Format: in vivo
Conditions: for Prevention of irritation on intra-articular injection (in words): glycerol and glucitol in comparable circumstances, data not shown
Protocol: After 24 hours the rabbits were sacrificed, the joints were removed and histological studies of the synnovial membrane were carried out. Each of the following histological findings was scored 0 to 3. a. Synovial lining hyperplasia b. Presence of Fibrin c. Inflammatory infiltration d. Necrosis […]

[1] = rabbit knee, intra-articular injection of the solution itself, sacrifice 24 h after injection
[2] = rabbit knee, intra-articular injection of the solution itself, sacrifice 24 h after injection, sulphate

OCC(O)CO [glycerol]
Prevention of irritation on intra-articular injection (in words) (rabbit knee): lack of prevention of irritation

OC[C@@H](O)[C@H](O)[C@@H](O)CO [4.5% Xylitol in distilled water, Xylitol]
Histological score of synovial membrane (synovial lining hyperplasia, fibrin, inflammatory infiltration, necrosis, each scored 0 to 3), Mean [1]: 1.4

OC[C@@H](O)[C@@H](O)[C@H](O)[C@@H](O)CO [glucitol]
Prevention of irritation on intra-articular injection (in words) (rabbit knee): lack of prevention of irritation

OC[C@@H](O)[C@@H](O)[C@H](O)[C@H](O)CO [5.4% Mannitol in distilled water, Mannitol]
Histological score of synovial membrane (synovial lining hyperplasia, fibrin, inflammatory infiltration, necrosis, each scored 0 to 3), Mean [1]: 3.4
Prevention of irritation on intra-articular injection (in words) (rabbit knee): does not prevent irritation

sodium Hyaluronate [1% sodium Hyaluronate in saline]
Histological score of synovial membrane (synovial lining hyperplasia, fibrin, inflammatory infiltration, necrosis, each scored 0 to 3), Mean (rabbit, in vivo): 1.0

CCCCCCCCCCCCOS(=O)(=O)[O-].[Na+] [0.2% SLS in saline, sodium lauryl sulphate]
Histological score of synovial membrane (synovial lining hyperplasia, fibrin, inflammatory infiltration, necrosis, each scored 0 to 3), Mean [2]: 1.4

CCCCCCCCCCCCOS(=O)(=O)[O-].[Na+] [0.5% SLS in saline (positive control), sodium lauryl sulphate]
Histological score of synovial membrane (synovial lining hyperplasia, fibrin, inflammatory infiltration, necrosis, each scored 0 to 3), Mean (rabbit knee, intra-articular injection of the solution itself, sacrifice 24 h after injection, listed as 0.5% SLS in saline, sulphate): 5.8
Histological score of synovial membrane (synovial lining hyperplasia, fibrin, inflammatory infiltration, necrosis, each scored 0 to 3), Mean [2]: 5.8
